Laboratory results from patent publication US20260115139A1, “Amino Acid-Containing Ionizable Lipids for the Delivery of Therapeutic Agents” (NanoVation Therapeutics Inc., priority 2022, published 2026).

Test system: liver
Experiment: In vivo delivery of luciferase mRNA LNPs, luminescence in liver
Details: LNP 50/10/38.5/1.5 mol % ionizable lipid/DSPC/chol/PEG-DMG, N/P=6, luciferase mRNA 1 mg/kg intravenous, CD-1 mice, 4 hours post-injection
Procedure: The mRNA dose was 1 mg/kg.

Row | SMILES | luminescence intensity per mg liver compared with the MC3 benchmark (lipid 1)
1 | CCCCCCCCC(CCCCCC)C(=O)OCCCCCC(CCCCCOC(=O)CN(C)C(=O)C(CCCCCC)CCCCCCCC)OC(=O)CCCN(C)C (stereo not shown) [lipid 6, 6-((4-(Dimethylamino)butanoyl)oxy)-11-((N-(2-hexyldecanoyl)-N-methylglycyl)oxy)-undecyl 2-hexyldecanoate] | higher
2 | CCCCCCCCC(CCCCCC)C(=O)N(C)CC(=O)OCCCCCC1(CCCCCOC(=O)CN(C)C(=O)C(CCCCCC)CCCCCCCC)OCC(CCOC(=O)CCCN(C)C)O1 (stereo not shown) [lipid 17, (4-(2-((4-(dimethylamino)butanoyl)oxy)ethyl)-1,3-dioxolane-2,2-diyl)bis(pentane-5,1-diyl) bis(2-(2-hexyl-N-methyldecanamido)acetate)] | higher
3 | CCCCCCCCC(CCCCCC)C(=O)N(C)CC(=O)OCCCCCC(CCCCCOC(=O)CN(C)C(=O)C(CCCCCC)CCCCCCCC)OC(=O)CCCC(=O)OCCCN(C)C (stereo not shown) [lipid 19, 9,31-dihexyl-11,29-dimethyl-10,13,27,30-tetraoxo-14,26-dioxa-11,29-diazanonatriacon-tan-20-yl (3-(dimethylamino)propyl) glutarate] | higher
4 | CCCCCCCCC(CCCCCC)C(=O)OCCCCCC(CCCCCOC(=O)CN(C)C(=O)C(CCCCCC)CCCCCCCC)N(C)CCCO (stereo not shown) [lipid 23, 11-((N-(2-Hexyldecanoyl)-N-methylglycyl)oxy)-6-((3-hydroxypropyl)(methyl)amino)-undecyl 2-hexyldecanoate] | higher
5 | CCCCCCCCC(CCCCCC)C(=O)OCCCCCC(CCCCCOC(=O)CN(C)C(=O)C(CCCCCC)CCCCCCCC)N(C)CCO (stereo not shown) [lipid 24, 11-((N-(2-Hexyldecanoyl)-N-methylglycyl)oxy)-6-((2-hydroxyethyl)(methyl)amino)-undecyl 2-hexyldecanoate] | higher
6 | CCCCCCCCC(CCCCCC)C(=O)OCCCCCC(CCCCCOC(=O)CN(C)C(=O)CC(CCCCCCC)CCCCCCC)N(C)CCCCO (stereo not shown) [lipid 25, 11-((N-(3-Heptyldecanoyl)-N-methylglycyl)oxy)-6-((4-hydroxybutyl)(methyl)amino)-undecyl 2-hexyldecanoate] | higher
7 | CCCCCCCCC(CCCCCC)CC(=O)N(C)CC(=O)OCCCCCC(CCCCCOC(=O)C(CCCCCC)CCCCCCCC)N(C)CCCCO (stereo not shown) [lipid 27, 11-((N-(3-Hexylundecanoyl)-N-methylglycyl)oxy)-6-((4-hydroxybutyl)(methyl)-amino)-undecyl 2-hexyldecanoate] | higher
8 | CCCCCCCCCC(=O)OCCCCCC(CCCCCOC(=O)CN(C)C(=O)CC(CCCCCC)CCCCCCCC)N(C)CCCCO (stereo not shown) [lipid 33, 11-((N-(3-Hexylundecanoyl)-N-methylglycyl)oxy)-6-((4-hydroxybutyl)(methyl)-amino)-undecyl decanoate] | higher
9 | CCCCCCCCC(CCCCCC)C(=O)OCCCCCC(CCCCCO)N(C)CCCCOC(=O)CN(C)C(=O)C(CCCCCC)CCCCCCCC (stereo not shown) [lipid 36, 6-((4-((N-(2-Hexyldecanoyl)-N-methylglycyl)oxy)butyl)(methyl)amino)-11-hydroxy-undecyl 2-hexyldecanoate] | higher

Test system: not given
Experiment: not given
Details: delivery of siRNA; background statement; cited from earlier work

Row | SMILES | siRNA required compared with KC2
10 | CCCCC/C=C\C/C=C\CCCCCCCCC(CCCCCCCC/C=C\C/C=C\CCCCC)OC(=O)CCCN(C)C [lipid 1] | about 3 times less
